Results published in ChEMBL document CHEMBL1128179, “Structure-activity study of tripeptide thrombin inhibitors using alpha-alkyl amino acids and other conformationally constrained amino acid substitutions” (J Med Chem, 1995).
Square brackets hold non-standard residues; d marks the D form. Peptide text beside a SMILES is read from it. * marks the point of attachment. Tic = O=C(O)[C@@H]1Cc2ccccc2CN1; dPhg = N[C@@H](C(=O)O)c1ccccc1; Boc = CC(C)(C)OC(=O)*

Columns and labels:
[1] = molecular target: Tissue-type plasminogen activator (Homo sapiens, UniProt P00750); assay: In vitro Enzyme Inhibitory activity against t-PA(Tissue plasminogen activator).
[2] = molecular target: T1, Serine protease 1 (Bos taurus, UniProt P00760); assay: In vitro Enzyme Inhibitory activity measured against Trypsin
T1 sequence (P00760 whole entry): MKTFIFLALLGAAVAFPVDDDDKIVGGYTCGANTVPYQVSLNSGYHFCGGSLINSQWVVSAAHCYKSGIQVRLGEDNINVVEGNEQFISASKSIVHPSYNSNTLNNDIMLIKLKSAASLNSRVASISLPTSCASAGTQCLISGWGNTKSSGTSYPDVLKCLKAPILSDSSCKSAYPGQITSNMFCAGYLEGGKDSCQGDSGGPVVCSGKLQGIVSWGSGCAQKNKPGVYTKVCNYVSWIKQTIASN

[3] = Ratio of IC50 towards Plasmin to thrombin
[4] = Ratio of IC50 towards Tissue Plasminogen activator to thrombin
[5] = molecular target: Coagulation factor X (Bos taurus, UniProt P00743); assay: In vitro Enzyme Inhibitory activity measured against Coagulation factor X
[6] = molecular target: Prothrombin (Bos taurus, UniProt P00735); assay: In vitro Enzyme Inhibitory activity measured against Thrombin
[7] = molecular target: Plasminogen (Homo sapiens, UniProt P00747); assay: In vitro Enzyme Inhibitory activity measured against Plasmin
Sequence of Plasminogen (P00747 97-580 limits assumed): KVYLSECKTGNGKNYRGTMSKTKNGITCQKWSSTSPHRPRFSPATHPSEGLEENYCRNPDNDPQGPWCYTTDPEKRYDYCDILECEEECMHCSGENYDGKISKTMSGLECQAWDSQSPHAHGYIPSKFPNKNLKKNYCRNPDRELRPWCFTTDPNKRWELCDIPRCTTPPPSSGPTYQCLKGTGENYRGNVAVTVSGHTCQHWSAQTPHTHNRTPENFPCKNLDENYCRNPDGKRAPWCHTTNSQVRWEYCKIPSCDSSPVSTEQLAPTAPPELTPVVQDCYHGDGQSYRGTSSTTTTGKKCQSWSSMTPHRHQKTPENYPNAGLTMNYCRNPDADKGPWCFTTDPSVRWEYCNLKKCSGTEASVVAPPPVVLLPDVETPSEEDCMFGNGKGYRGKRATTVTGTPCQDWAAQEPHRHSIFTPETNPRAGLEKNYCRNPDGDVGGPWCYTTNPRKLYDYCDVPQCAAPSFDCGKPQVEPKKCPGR
Sequence of Plasminogen (P00747 581-810 limits assumed): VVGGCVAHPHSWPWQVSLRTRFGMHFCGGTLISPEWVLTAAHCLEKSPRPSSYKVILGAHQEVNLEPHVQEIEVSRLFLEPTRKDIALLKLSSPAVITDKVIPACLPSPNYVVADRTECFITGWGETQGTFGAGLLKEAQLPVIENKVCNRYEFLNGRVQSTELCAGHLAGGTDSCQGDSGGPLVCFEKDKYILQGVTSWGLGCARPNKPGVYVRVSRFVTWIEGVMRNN

Sequence of Coagulation factor X (P00743 41-180 limits assumed): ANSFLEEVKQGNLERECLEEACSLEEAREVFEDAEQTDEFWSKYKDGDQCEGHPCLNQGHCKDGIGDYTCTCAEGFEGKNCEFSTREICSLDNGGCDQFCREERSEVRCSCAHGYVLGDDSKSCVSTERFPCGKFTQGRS
Sequence of Coagulation factor X (P00743 234-492 limits assumed): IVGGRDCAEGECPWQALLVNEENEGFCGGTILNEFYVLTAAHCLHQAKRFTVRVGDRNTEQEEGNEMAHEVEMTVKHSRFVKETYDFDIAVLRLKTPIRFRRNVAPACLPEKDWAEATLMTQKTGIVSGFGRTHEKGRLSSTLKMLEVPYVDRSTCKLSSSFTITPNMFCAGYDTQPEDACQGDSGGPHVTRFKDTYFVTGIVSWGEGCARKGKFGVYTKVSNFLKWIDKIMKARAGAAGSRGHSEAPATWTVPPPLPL
Sequence of Tissue-type plasminogen activator (P00750 whole entry): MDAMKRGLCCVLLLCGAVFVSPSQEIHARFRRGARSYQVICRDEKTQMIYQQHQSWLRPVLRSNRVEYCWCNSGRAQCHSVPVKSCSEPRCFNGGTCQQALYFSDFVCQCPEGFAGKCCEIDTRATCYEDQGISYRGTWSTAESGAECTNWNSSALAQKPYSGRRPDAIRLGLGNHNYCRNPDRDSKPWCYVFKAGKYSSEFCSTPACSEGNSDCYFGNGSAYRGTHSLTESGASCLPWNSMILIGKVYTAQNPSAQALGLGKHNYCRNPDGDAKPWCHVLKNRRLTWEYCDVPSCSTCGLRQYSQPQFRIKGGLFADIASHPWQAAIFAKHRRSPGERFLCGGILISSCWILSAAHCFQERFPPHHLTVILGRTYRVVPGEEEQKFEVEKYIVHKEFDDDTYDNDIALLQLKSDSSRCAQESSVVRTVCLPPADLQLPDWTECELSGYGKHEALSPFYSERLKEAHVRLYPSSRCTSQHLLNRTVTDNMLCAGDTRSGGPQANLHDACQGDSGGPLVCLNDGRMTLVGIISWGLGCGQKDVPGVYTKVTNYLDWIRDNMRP

SMILES | IC50 [1] | IC50 [2] | Selectivity [3] | Selectivity [4] | IC50 [5] | IC50 [6] | IC50 [7]
CC(C)(C)OC(=O)N[C@H](Cc1ccccc1)C(=O)N1CCC[C@H]1C(=O)N[C@H](C=O)CCCN=C(N)N | 0.95 µM | 0.014 µM | 4 | 20 | 1.6 µM | 0.045 µM | 
CC(C)(C)OC(=O)N[C@@H](Cc1ccccc1)C(=O)N1CCCC[C@H]1C(=O)N[C@H](C=O)CCCNC(=N)N | 48 µM | 0.72 µM |  |  | 32 µM | 1.7 µM | 8.1 µM
N=C(N)NCCC[C@@H](C=O)NC(=O)[C@@H]1CCCN1C(=O)[C@@H]1C[C@@H]2CCCC[C@@H]2CN1 | 30 µM | 0.0091 µM | 5 | 650 | 3.3 µM | 0.046 µM | 0.23 µM
N=C(N)NCCC[C@@H](C=O)NC(=O)[C@@H]1CCCN1C(=O)[C@@H]1NCC[C@@H]2CCCC[C@@H]21 | 34 µM | 0.053 µM | 40 | 1800 | 0.55 µM | 0.019 µM | 0.71 µM
CC(C)(C)OC(=O)NC(Cc1ccccc1)C(=O)N1CSCC1C(=O)N[C@H](C=O)CCCN=C(N)N (stereo in doubt) [listing 1 of 3 here] |  |  | 4 | 260 |  |  | 
CN[C@H](Cc1ccccc1)C(=O)N1CCC[C@H]1C(=O)N[C@H](C=O)CCCN=C(N)N | 21 µM | 0.013 µM |  |  | 7.6 µM | 0.0089 µM | 0.67 µM
CN[C@H](Cc1ccccc1)C(=O)N1CCC[C@H]1C(=O)N[C@H](C=O)CCCNC(=N)N |  |  | 80 | 2400 |  |  | 
C[C@](NC(=O)C(F)(F)F)(C(=O)N1CCC[C@H]1C(=O)N[C@H](C=O)CCCN=C(N)N)c1ccccc1 | > 30000 µM | 0.18 µM | 700 | > 50000 | 190 µM | 0.064 µM | 45 µM
CC(C)(C)OC(=O)NC(Cc1ccccc1)C(=O)N1C(C(=O)N[C@H](C=O)CCCN=C(N)N)CCC1(C)C (stereo in doubt) [listing 1 of 3 here] | > 30000 µM | 0.17 µM |  |  | 18 µM |  | 11 µM
CC(C)(C)OC(=O)N[C@@H](Cc1ccccc1)C(=O)N1CCCC[C@H]1C(=O)N[C@H](C=O)CCCN=C(N)N |  |  | 5 | 30 |  |  | 
CC(C)(C)OC(=O)N[C@@H](C(=O)N1CCC[C@H]1C(=O)N[C@H](C=O)CCCN=C(N)N)c1ccccc1 (Boc-[dPhg]-Pro-Arg-aldehyde) | 8.7 µM | 0.0098 µM | 6 | 540 | 0.26 µM | 0.016 µM | 
CC(=O)N[C@@](C)(C(=O)N1CC[C@H]1C(=O)N[C@H](C=O)CCCN=C(N)N)c1ccccc1 |  |  | 400 | 13000 |  |  | 
N=C(N)NCCC[C@@H](C=O)NC(=O)[C@@H]1CCCN1C(=O)[C@@H]1Cc2ccccc2CN1 (H-[Tic]-Pro-Arg-aldehyde) | 430 µM | 0.023 µM |  |  | 0.64 µM | 0.019 µM | 
CC(C)(C)OC(=O)NC(Cc1ccccc1)C(=O)N1C(C(=O)N[C@H](C=O)CCCN=C(N)N)CCC1(C)C (stereo in doubt) [listing 2 of 3 here] |  |  |  |  |  | 0.29 µM | 
CC(C)(C)OC(=O)N[C@@](C)(C(=O)N1CC[C@H]1C(=O)N[C@H](C=O)CCCN=C(N)N)c1ccccc1 | 120 µM | 0.015 µM | 180 | 5500 | 0.89 µM | 0.022 µM | 3.9 µM
CC(=O)N[C@@](C)(C(=O)N1CC[C@H]1C(=O)N[C@H](C=O)CCCNC(=N)N)c1ccccc1 | 250 µM | 0.011 µM |  |  | 86 µM | 0.019 µM | 7.5 µM
CC(C)(C)OC(=O)NC(Cc1ccccc1)C(=O)N1CSCC1C(=O)N[C@H](C=O)CCCN=C(N)N (stereo in doubt) [listing 2 of 3 here] |  |  |  |  |  | 0.088 µM | 
CC(C)(C)OC(=O)NC(Cc1ccccc1)C(=O)N1CSCC1C(=O)N[C@H](C=O)CCCN=C(N)N (stereo in doubt) [listing 3 of 3 here] | 23 µM | 0.0088 µM |  |  | 0.86 µM |  | 0.34 µM
C[C@](NC(=O)C(F)(F)F)(C(=O)N1CC[C@H]1C(=O)N[C@H](C=O)CCCN=C(N)N)c1ccccc1 | 130 µM | 0.0096 µM | 510 | 11000 | 98 µM | 0.012 µM | 6.1 µM
CC(C)(C)OC(=O)N[C@H](Cc1ccccc1)C(=O)N1CC[C@H]1C(=O)N[C@H](C=O)CCCNC(=N)N | 0.9 µM | 0.0097 µM |  |  | 1.3 µM |  | 0.36 µM
CC[C@](NC(=O)C(F)(F)F)(C(=O)N1CC[C@H]1C(=O)N[C@H](C=O)CCCN=C(N)N)c1ccccc1 |  | 0.0052 µM |  |  | 32 µM |  | 4.3 µM
CC(C)(C)OC(=O)NC(Cc1ccccc1)C(=O)N1CC[C@H]1C(=O)N[C@@H](CCCN=C(N)N)C(=O)O (stereo in doubt) |  |  | 20 | 50 |  | 0.018 µM | 
CC(C)(C)OC(=O)N[C@@H](C(=O)N1CC[C@H]1C(=O)N[C@H](C=O)CCCN=C(N)N)c1ccccc1 | 6.6 µM | 0.011 µM |  |  | 0.27 µM |  | 0.15 µM
CC(C)(C)OC(=O)NC(Cc1ccccc1)C(=O)N1C(C(=O)N[C@H](C=O)CCCN=C(N)N)CCC1(C)C (stereo in doubt) [listing 3 of 3 here] |  |  | 38 | > 50000 |  |  | 
CN[C@@H](Cc1ccccc1)C(=O)N1CCC[C@H]1C(=O)N[C@](C)(C=O)CCCN=C(N)N | > 30000 µM | 240 µM | 850 | > 30000 | 1800 µM | 1 µM | 850 µM
